Measured values published in patent US20240293413A1, “COMPOUND AND METHOD FOR TREATING CHEMOTHERAPY-RELATED GASTROINTESTINAL SIDE EFFECTS” (ONQUALITY PHARMACEUTICALS CHINA LTD., priority 2021, published 2024).

Assays:
Assay type in all cases: in vivo
[1] = system: diarrhea caused by a chemotherapeutic agent in Balb/c mice; test: Examples 230-271 (Table 4): oral CDK inhibitor, relief of diarrhea caused by a chemotherapeutic agent
Text: Balb/c mice were fed for 1 week, and then divided into groups. The experiment was divided into a control group, a chemotherapeutic agent group, and a CDK inhibitor group, each of which comprised 10 mice, to perform the administration experiment, for which the administration dosage, mode, time and frequency were shown in Table 4. The control group: being intragastrically administered with the same solvent as that used in the CDK inhibitor group (the time was shown in Table 4), and then being injected/intragastrically administered with the same solvent as that used in the chemotherapeutic agent group (the administration mode was shown in Table 4): the chemotherapeutic agent group: being intragastrically administered with the same solvent as that used in the CDK inhibitor group (the time was shown in Table 4), and then being injected/intragastrically administered with the chemotherapeutic agent (the type, administration mode and dosage were shown in Table 4): the CDK inhibitor group: being intragastrically administered with the CDK inhibitor (the time was shown in Table 4), and then being administered with the chemotherapeutic agent (the mode and dosage were shown in Table 4).
(§1) The diarrhea grading of mice was observed and recorded every day.

[2] = system: diarrhea caused by a chemotherapeutic agent in Balb/c mice; test: Examples 343-381 (Table 6): oral versus intravenous CDK inhibitor, relief of diarrhea caused by a chemotherapeutic agent;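 further: percent of treated mice whose diarrhea grade fell below chemotherapy-group average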
How it was run: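 Balb/c mice (10 per group) received the CDK inhibitor orally or by tail-vein injection, or vehicle, followed by a chemotherapeutic agent or its solvent. Diarrhea grade was scored daily.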

[3] = system: diarrhea caused by a chemotherapeutic agent in Balb/c mice; test: Examples 382-405 (Table 7): various administration modes of the CDK inhibitor, relief of diarrhea caused by a chemotherapeutic agent; conditions: cycle 8 days
Text: Balb/c mice were fed for 1 week, and then divided into groups. The experiment was divided into a control group, a chemotherapeutic agent group, CDK inhibitor groups (including an oral administration group of a CDK inhibitor, an intraperitoneal injection group of a CDK inhibitor, an intramuscular injection group of a CDK inhibitor, a local administration group of a CDK inhibitor), each of which comprised 10 mice, to perform the administration experiment, for which the administration dosage, mode, time and frequency were shown in Table 7. The control group: being administered with the same solvent as that used in the CDK inhibitor group (the time and mode were shown in Table 7), and then being injected/intragastrically administered with the same solvent as that used in the chemotherapeutic agent group (the administration mode was shown in Table 7): the chemotherapeutic agent group: being administered with the same solvent as that used in the CDK inhibitor group (the time and mode were shown in Table 7), and then being injected/intragastrically administered with the chemotherapeutic agent (the type, administration mode and dosage were shown in Table 7): the oral administration group of the CDK inhibitor: being intragastrically administered with the CDK inhibitor (the time was shown in Table 7), and then being administered with the chemotherapeutic agent (the mode and dosage were shown in Table 7): the intraperitoneal injection group of the CDK inhibitor: being intraperitoneally injected with the CDK inhibitor (the time was shown in Table 7), and then being administered with the chemotherapeutic agent (the mode and dosage were shown in Table 7): the intramuscular injection group of the CDK inhibitor: being intramuscularly injected with the CDK inhibitor (the time was shown in Table 7), and then being administered with the chemotherapeutic agent (the mode and dosage were shown in Table 7); and the local administration group of the CDK inhibitor: the hair on the abdomen of mice was shaved (about 2 cm*2 cm), being applied with the CDK inhibitor (the time was shown in Table 7), and then being administered with the chemotherapeutic agent (the mode and dosage were shown in Table 7).
as §1

## CC(=O)c1c(C)c2cnc(Nc3ccc(N4CCNCC4)cn3)nc2n(C2CCCC2)c1=O [Palbociclib]
[1]; Example 230, Doxorubicin (Dox) intraperitoneal injection 10 mg/kg single, CDK inhibitor oral 150 mg/kg single, 0.5 h before, cycle 12 days
  Relative remission rate: 50%
[1]; Example 231, Doxorubicin (Dox) intraperitoneal injection 10 mg/kg single, CDK inhibitor oral 150 mg/kg single, 4 h before, cycle 12 days
  Relative remission rate: 70%
[1]; Example 232, Doxorubicin (Dox) intraperitoneal injection 10 mg/kg single, CDK inhibitor oral 150 mg/kg single, 8 h before, cycle 12 days
  Relative remission rate: 70%
[1]; Example 233, Doxorubicin (Dox) intraperitoneal injection 10 mg/kg single, CDK inhibitor oral 150 mg/kg single, 12 h before, cycle 12 days
  Relative remission rate: 80%
[1]; Example 234, Doxorubicin (Dox) intraperitoneal injection 10 mg/kg single, CDK inhibitor oral 150 mg/kg single, 24 h before, cycle 12 days
  Relative remission rate: 50%
[1]; Example 235, Doxorubicin (Dox) intraperitoneal injection 10 mg/kg single, CDK inhibitor oral 150 mg/kg single, 48 h before, cycle 12 days
  Relative remission rate: 0%
[1]; Example 249, Methotrexate (MTX) oral administration 400 mg/kg single, CDK inhibitor oral 125 mg/kg single, 4 h before, cycle 7 days
  Relative remission rate: 60%
[1]; Example 250, Methotrexate (MTX) oral administration 400 mg/kg single, CDK inhibitor oral 125 mg/kg single, 24 h before, cycle 7 days
  Relative remission rate: 60%
[1]; Example 260, Cytarabine (Ara-C) intravenous injection 600 mg/kg single, CDK inhibitor oral 150 mg/kg single, 6 h before, cycle 8 days
  Relative remission rate: 60%
[1]; Example 271, Vinorelbine (NVB) intraperitoneal injection 10 mg/kg single, CDK inhibitor oral 200 mg/kg single, 12 h before, cycle 7 days
  Relative remission rate: 70%
[2]; Example 343, Etoposide intravenous injection 75 mg/kg single, CDK inhibitor intravenous injection 150 mg/kg single, 0.5 h before chemotherapeutic agent, cycle 8 days
  Relative remission rate: 10%
[2]; Example 343, Etoposide intravenous injection 75 mg/kg single, CDK inhibitor oral 150 mg/kg single, 0.5 h before chemotherapeutic agent, cycle 8 days
  Relative remission rate: 40%
[2]; Example 344, Etoposide intravenous injection 75 mg/kg single, CDK inhibitor intravenous injection 150 mg/kg single, 4 h before, cycle 8 days
  Relative remission rate: 10%
[2]; Example 344, Etoposide intravenous injection 75 mg/kg single, CDK inhibitor oral 150 mg/kg single, 4 h before, cycle 8 days
  Relative remission rate: 80%
[2]; Example 345, Etoposide intravenous injection 75 mg/kg single, CDK inhibitor intravenous injection 150 mg/kg single, 8 h before, cycle 8 days
  Relative remission rate: 10%
[2]; Example 345, Etoposide intravenous injection 75 mg/kg single, CDK inhibitor oral 150 mg/kg single, 8 h before, cycle 8 days
  Relative remission rate: 60%
[2]; Example 346, Etoposide intravenous injection 75 mg/kg single, CDK inhibitor intravenous injection 150 mg/kg single, 12 h before, cycle 8 days
  Relative remission rate: 20%
[2]; Example 346, Etoposide intravenous injection 75 mg/kg single, CDK inhibitor oral 150 mg/kg single, 12 h before, cycle 8 days
  Relative remission rate: 60%
[2]; Example 347, Etoposide intravenous injection 75 mg/kg single, CDK inhibitor intravenous injection 150 mg/kg single, 24 h before, cycle 8 days
  Relative remission rate: 10%
[2]; Example 347, Etoposide intravenous injection 75 mg/kg single, CDK inhibitor oral 150 mg/kg single, 24 h before, cycle 8 days
  Relative remission rate: 60%
[2]; Example 357, Etoposide and cisplatin intravenous injection 50 (E) 5 (Cis) mg/kg single, CDK inhibitor intravenous injection 125 mg/kg single, 4 h before, cycle 7 days
  Relative remission rate: 20%
[2]; Example 357, Etoposide and cisplatin intravenous injection 50 (E) 5 (Cis) mg/kg single, CDK inhibitor oral 125 mg/kg single, 4 h before, cycle 7 days
  Relative remission rate: 70%
[2]; Example 358, Etoposide and cisplatin intravenous injection 50 (E) 5 (Cis) mg/kg single, CDK inhibitor intravenous injection 125 mg/kg single, 24 h before, cycle 7 days
  Relative remission rate: 10%
[2]; Example 358, Etoposide and cisplatin intravenous injection 50 (E) 5 (Cis) mg/kg single, CDK inhibitor oral 125 mg/kg single, 24 h before, cycle 7 days
  Relative remission rate: 40%
[2]; Example 366, Carboplatin (CBP) oral administration 200 mg/kg single, CDK inhibitor intravenous injection 150 mg/kg single, 24 h before, cycle 10 days
  Relative remission rate: 10%
[2]; Example 366, Carboplatin (CBP) oral administration 200 mg/kg single, CDK inhibitor oral 150 mg/kg single, 24 h before, cycle 10 days
  Relative remission rate: 50%
[2]; Example 378, Gemcitabine (GEM) intravenous injection 120 mg/kg single, CDK inhibitor intravenous injection 200 mg/kg single, 12 h before, cycle 8 days
  Relative remission rate: 10%
[2]; Example 378, Gemcitabine (GEM) intravenous injection 120 mg/kg single, CDK inhibitor oral 200 mg/kg single, 12 h before, cycle 8 days
  Relative remission rate: 50%
[2]; Example 379, Gemcitabine (GEM) intravenous injection 120 mg/kg single, CDK inhibitor intravenous injection 200 mg/kg single, 12 h before, cycle 8 days
  Relative remission rate: 20%
[2]; Example 379, Gemcitabine (GEM) intravenous injection 120 mg/kg single, CDK inhibitor oral 200 mg/kg single, 12 h before, cycle 8 days
  Relative remission rate: 60%
[3]; Example 382, Docetaxel (DTX) intraperitoneal injection 10 mg/kg single, CDK inhibitor intraperitoneal injection 150 mg/kg single, 0.5 h before
  Relative remission rate of other administration mode: 10%
[3]; Example 382, Docetaxel (DTX) intraperitoneal injection 10 mg/kg single, CDK inhibitor oral 150 mg/kg single, 0.5 h before
  Relative remission rate of oral administration: 40%
[3]; Example 383, Docetaxel (DTX) intraperitoneal injection 10 mg/kg single, CDK inhibitor intraperitoneal injection 150 mg/kg single, 4 h before
  Relative remission rate of other administration mode: 10%
[3]; Example 383, Docetaxel (DTX) intraperitoneal injection 10 mg/kg single, CDK inhibitor oral 150 mg/kg single, 4 h before
  Relative remission rate of oral administration: 40%
[3]; Example 384, Docetaxel (DTX) intraperitoneal injection 10 mg/kg single, CDK inhibitor intraperitoneal injection 150 mg/kg single, 8 h before
  Relative remission rate of other administration mode: 10%
[3]; Example 384, Docetaxel (DTX) intraperitoneal injection 10 mg/kg single, CDK inhibitor oral 150 mg/kg single, 8 h before
  Relative remission rate of oral administration: 50%
[3]; Example 385, Docetaxel (DTX) intraperitoneal injection 10 mg/kg single, CDK inhibitor intraperitoneal injection 150 mg/kg single, 12 h before
  Relative remission rate of other administration mode: 20%
[3]; Example 385, Docetaxel (DTX) intraperitoneal injection 10 mg/kg single, CDK inhibitor oral 150 mg/kg single, 12 h before
  Relative remission rate of oral administration: 70%
[3]; Example 386, Docetaxel (DTX) intraperitoneal injection 10 mg/kg single, CDK inhibitor intraperitoneal injection 150 mg/kg single, 24 h before
  Relative remission rate of other administration mode: 10%
[3]; Example 386, Docetaxel (DTX) intraperitoneal injection 10 mg/kg single, CDK inhibitor oral 150 mg/kg single, 24 h before
  Relative remission rate of oral administration: 50%
[3]; Example 403, Gemcitabine (GEM) intravenous injection 120 mg/kg single, CDK inhibitor intravenous injection 200 mg/kg single, 12 h before
  Relative remission rate of other administration mode: 20%
[3]; Example 403, Gemcitabine (GEM) intravenous injection 120 mg/kg single, CDK inhibitor oral 200 mg/kg single, 12 h before
  Relative remission rate of oral administration: 60%
